Data from PubChem BioAssay (NCI).
Several values for one entry are separate records, joined by “and”; a condition that tells them apart may be missing. Identical values can stand only once.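 Test compounds were applied to cells in 96-well plates for 48 hours at 5 doses. GI50 marks 50% less growth. TGI: concentration producing complete growth inhibition.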

Experiments:
Experiment in all cases: NCI tumour cell line growth inhibition, 48 h
RXF-631 renal = tested on: RXF-631 renal
HOP-18 NSCLC = tested on: HOP-18 NSCLC
DMS 273 small cell lung = tested on: DMS 273 small cell lung
DMS 114 small cell lung = tested on: DMS 114 small cell lung
LXFL 529 NSCLC = tested on: LXFL 529 NSCLC
SNB-78 CNS = tested on: SNB-78 CNS
XF 498 CNS = tested on: XF 498 CNS
KM20L2 colon = tested on: KM20L2 colon
MDA-N = tested on: MDA-N
SN12K1 renal = tested on: SN12K1 renal
P388/ADR leukemia = tested on: P388/ADR leukemia

Compound	TGI (RXF-631 renal)	TGI (HOP-18 NSCLC)	TGI (DMS 273 small cell lung)	TGI (DMS 114 small cell lung)	TGI (LXFL 529 NSCLC)	TGI (SNB-78 CNS)	TGI (XF 498 CNS) [µM]	TGI (KM20L2 colon) [µM]	TGI (MDA-N) [µM]	GI50 (RXF-631 renal)	GI50 (DMS 273 small cell lung) [µM]	GI50 (DMS 114 small cell lung)	GI50 (LXFL 529 NSCLC)	GI50 (SNB-78 CNS)	GI50 (XF 498 CNS) [µM]	GI50 (KM20L2 colon) [µM]	GI50 (HOP-18 NSCLC)	TGI (SN12K1 renal) [µM]	TGI (P388/ADR leukemia) [µM]
CCCCCCCCCCCCCCCCCC(=O)OCC(C[As](=O)(O)O)OC(=O)CCCCCCCCCCCCCCCCC (stereo unspecified)	> 100 µM	> 100 µM	> 100 µM	34.3 µM	> 100 µM	> 100 µM	53	> 100											
NC(=O)Nc1c([N+](=O)[O-])cc(C(F)(F)F)cc1[N+](=O)[O-]	> 100 µM		> 100 µM		> 100 µM	> 100 µM	> 100	80.6											
CC1=NC(C(C)C)C(=O)O1 (stereo unspecified)	> 100 µM	> 100 µM	> 100 µM	56.2 µM	> 100 µM	> 100 µM	> 100	> 100											
CN(C)C1=NC2=S(SC(Nc3ccccc3)=N2)S1 (stereo unspecified)	> 100 µM	91.4 µM	66 µM	42.6 µM	62.9 µM	> 100 µM	50.5	> 100											
CCCCCCCCCCCCCCCCCC(=O)OCC(COC1OC(CS(=O)(=O)O)C(O)C(O)C1O)OC(=O)CCCCCCCCCCCCCCCCC (stereo unspecified)									> 100										
c1ccc(CN2CCCCC(Sc3ccccc3)CC2)cc1 (stereo unspecified)		> 100 µM	25.1 µM	44.6 µM	32.6 µM	80.1 µM		76.3											
CCC[CH2][Sn]1([CH2]CCC)[O]CC(CN2CCOCC2)[O]1 (stereo unspecified)	2.71 µM		12 µM	4.35 µM	2.47 µM	6.36 µM	3.11	19.1		1.41 µM	3.15	1.36 µM	1.11 µM	2.12 µM	1.62	5.35			
COC(=O)C1=C(c2ccc3c(c2)OCO3)OC(c2ccc3c(c2)OCO3)C1 (stereo unspecified)	> 100 µM	> 100 µM	> 100 µM	> 100 µM	> 100 µM	> 100 µM	> 100	> 100											
Brc1ccccc1C=NC12CC3CC(CC(C3)C1)C2	> 100 µM	> 100 µM	> 100 µM	> 100 µM	> 100 µM	> 100 µM	> 100	> 100	> 73.8										
N#Cc1cc(N(CCCl)CCCl)c([N+](=O)[O-])cc1[N+](=O)[O-]									> 100										
COC(=O)C1=C(CS(=O)c2ccc([N+](=O)[O-])cc2[N+](=O)[O-])ON(C)C1c1ccccc1 (stereo unspecified)	> 100 µM	> 89.7 µM	> 80.6 µM	> 66.4 µM	> 92.8 µM	> 96.5 µM	> 100	> 72.6											
CCCCCNC(=O)c1c(O)[nH]c(=S)[nH]c1=O	> 100 µM			> 100 µM	> 100 µM	> 100 µM		> 100											
OCC1OC(n2cnc3c2NC=NC[C@H]3O)CC1O (stereo partly specified)	500 µM and > 588 µM	308 µM and > 588 µM	500 µM and > 588 µM	455 µM and > 588 µM	> 588 µM	500 µM and > 588 µM	498	> 588	> 500	158 µM and > 588 µM	> 588	> 588 µM	> 588 µM	> 588 µM		> 588	284 µM and > 588 µM	467	448
O=C1OC(c2ccccc2)=N/C1=C\c1cc(Cl)ccc1Cl	> 100 µM	> 100 µM		> 100 µM	86 µM	> 100 µM		> 100											
COC(=O)/C(=N\NC(=S)NN)C(C(=O)OC)C(=O)C(=O)Nc1cccc(C(F)(F)F)c1 (stereo unspecified)									> 100										
CSc1nc(C)c(Br)c(=O)n1C1OC(COC(C)=O)C(OC(C)=O)C(OC(C)=O)C1OC(C)=O (stereo unspecified)		> 100 µM	> 100 µM	> 100 µM and 81 µM	> 100 µM and 76.4 µM	64.8 µM and > 100 µM	43.6	> 100	> 100			> 100 µM and 25.5 µM	> 100 µM and 32.1 µM	17 µM and 63.6 µM					
CCC(c1ccc2cc(O)ccc2c1)C(C)(C)C(=O)O (stereo unspecified)									> 100										
NC(=O)CCC(NC(=O)Cc1ccccc1)C(=O)O (stereo unspecified) (tested in a mixture with another compound)		> 8130 µM	> 2470 µM	> 8130 µM	> 8130 µM			> 8130											
O=C1c2cc([N+](=O)[O-])cc3cc([N+](=O)[O-])cc(c23)C(=O)N1CCCNCCNCCCN1C(=O)c2cc([N+](=O)[O-])cc3cc([N+](=O)[O-])cc(c23)C1=O		5.63 µM	0.42 µM	1.38 µM	0.326 µM	1.14 µM	0.436	5.09											
